Format in all cases: cell-based, human
Assay [1] has as its system PC3, DU145, A549 and HT29 cell lines. Put plainly: Cancer cell growth inhibition, IC50 values used in assay for four cell lines (Example 5). Conditions: Homo sapiens, value used to make up 50:50 IC50 mixtures. The procedure:
(§1) Tumour cells were seeded in duplicate in 96-well plates at 2-5,000 per microtitre well containing RPMI culture medium/10% foetal calf serum. The cells were allowed to grow until the controls were nearly confluent after 5-6 days. Plates were then washed with PBS, fixed in ethanol and stained with 50 μL/well of SRB solution (sulforhodamine, 0.4% in 1% acetic acid), followed by washing with 1% acetic acid and solubilisation in Tris. The absorbance was read at 564 nm using an ELISA reader.
(§2) The IC50, or concentration required to inhibit cell growth by 50%, was determined from the percentage inhibition versus concentration data using the probit calculation methods of Finney (Finney D J (1971). Probit Analysis. 3rd Edition. Cambridge University Press).
The cell seeding and ELISA plate methodology of Example 2 were used for determining inhibition of four cancer cell lines. IC50 values were determined for the steroid saponins dioscin, deltonin and prosapogenin A, and their mixtures with cisplatin, docetaxel, doxorubicin and vincristine, using PC3, DU145, A549 and HT29 cell lines.

A further assay concerns LNCap cell line. As to the kind of experiment: Cancer cell growth inhibition, SRB dye assay (single agents and 50:50 IC50 mixtures). Conditions: Homo sapiens, 144 h. On the procedure: (§3) Cancer cells were seeded the day before application of drug in triplicate or quadruplicate in 96-well plates, allowed to grow in the presence of drug for 6 days before cell growth relative to untreated control wells was determined with a dye assay. Cells were seeded in triplicate or quadruplicate at 3-4,000 per microtitre well in 90 μl of RPMI culture medium/10% foetal calf serum/penicillin, streptomycin mix, treated with 10 μl of drug (prepared in a dilution plate at 10× concentration required), and allowed to grow until the controls were nearly confluent (6 days). SRB: Plates were washed with PBS, fixed with methylated spirits, washed with tap water and stained with 50 μL/well of SRB solution (sulforhodamine, 0.4% in 1% acetic acid), followed by washing with tap water and 1% acetic acid, solubilisation in Tris and absorbance read at 564 nm in an ELISA reader. Data was collected using ELISA plate reader software—SOFTmax PRO3.1.2, then imported into EXCEL. The mean and SD of replicates were calculated as a % of control, after subtraction of the blank value (wells with no cells). A graph was plotted of % control vs dose of agent and IC50 (half maximal inhibitory concentration) values determined. […] The cells were allowed to grow until the controls were nearly confluent after 5-6 days. Plates were then washed with PBS, fixed in ethanol and stained with 50 μL/well of SRB solution (sulforhodamine, 0.4% in 1% acetic acid), followed by washing with 1% acetic acid and solubilisation in Tris. The absorbance was read at 564 nm using an ELISA reader. […] Cambridge University Press). […] The inhibitory data from each mixture was used to determine an IC50 of IC50 value, where the concentrations used were the Multiplying Factor values. In order to determine the actual IC50 contribution of each component in the two-component mixture, the IC50 of IC50 value was multiplied by the IC50 of the individual component. This can then be used to determine the reduction in IC50 contribution (ie, reduction in dose) of the chemotherapeutic agent due to the presence of the steroid saponin in the mixture. A simpler way of determining the reduction in dose is to use the following simple formula: […]
Background: The SRB assay estimates cell density from bound dye.

For another assay, the system named is MCF7 cell line. Described as above. The conditions noted are these: Homo sapiens, 144 h. The procedure: as §3
In the next assay the test system is DU145 cell line. The description is as above. The conditions noted are these: Homo sapiens, DU-145, 144 h, single agent, Example 2. The procedure:
(§4) Cancer cells were seeded the day before application of drug in triplicate or quadruplicate in 96-well plates, allowed to grow in the presence of drug for 6 days before cell growth relative to untreated control wells was determined with a dye assay.
(§5) Cells were seeded in triplicate or quadruplicate at 3-4,000 per microtitre well in 90 μl of RPMI culture medium/10% foetal calf serum/penicillin, streptomycin mix, treated with 10 μl of drug (prepared in a dilution plate at 10× concentration required), and allowed to grow until the controls were nearly confluent (6 days).
(§6) SRB: Plates were washed with PBS, fixed with methylated spirits, washed with tap water and stained with 50 μL/well of SRB solution (sulforhodamine, 0.4% in 1% acetic acid), followed by washing with tap water and 1% acetic acid, solubilisation in Tris and absorbance read at 564 nm in an ELISA reader.
(§7) Data was collected using ELISA plate reader software—SOFTmax PRO3.1.2, then imported into EXCEL. The mean and SD of replicates were calculated as a % of control, after subtraction of the blank value (wells with no cells). A graph was plotted of % control vs dose of agent and IC50 (half maximal inhibitory concentration) values determined.
as §1, §2
(§8) The inhibitory data from each mixture was used to determine an IC50 of IC50 value, where the concentrations used were the Multiplying Factor values. In order to determine the actual IC50 contribution of each component in the two-component mixture, the IC50 of IC50 value was multiplied by the IC50 of the individual component. This can then be used to determine the reduction in IC50 contribution (ie, reduction in dose) of the chemotherapeutic agent due to the presence of the steroid saponin in the mixture. A simpler way of determining the reduction in dose is to use the following simple formula: […]

For another assay, the system named is PC3 cell line. The description is as above. Conditions: Homo sapiens, PC-3, 144 h, single agent, Example 2. On the procedure:
as §4, §5, §6, §7, §1, §2, §8

The subject of a further assay is A549 cell line. Described as above. Conditions: Homo sapiens, 144 h, single agent, Example 2, read-out: IC50. The procedure: as §4, §5, §6, §7, §1, §2, §8
For the next assay, the system named is HT29 cell line. The description is as above. Conditions: Homo sapiens, HT-29, 144 h, single agent, Example 2. On the procedure: as §4, §5, §6, §7, §1, §2, §8
Another assay has as its system K562 cell line. Described as above. Conditions: Homo sapiens, 144 h, single agent, Example 2, read-out: IC50. On the procedure: as §4, §5, §6, §7, §1, §2, §8
The cell seeding and ELISA plate methodology of Example 2 were used for determining inhibition of the K562 cell line.

Where [2] appears, read: Example 3, value used to make up 50:50 IC50 mixtures, read-out: IC50 values used in assay.
[3] abbreviates: single agent, Example 2, read-out: IC50.

These results are taken from US9358247B2, “Methods and compositions for promoting activity of anti-cancer therapies” (Oncology Research International Limited, priority 2006, dated 2016).

Each structure is given as a SMILES string. Where two headings read alike, the source gives them in different places.

One may read the IC50 as the concentration at which inhibition is half-maximal. Take `COc1cccc2c1C(=O)c1c(O)c3c(c(O)c1C2=O)C[C@@](O)(C(=O)CO)C[C@@H]3O[C@H]1C[C@H](N)[C@H](O)[C@H](C)O1` [Doxorubicin]: the IC50 amounted to 15 nM in assay [1]; 4 nM in the assay on LNCap cell line (setting [2]); 3.9 nM in the assay with LNCap cell line (setting [3]); 15 nM with MCF7 cell line (setting [2]); 14 nM in the assay with MCF7 cell line (setting [3]); 11 nM in the assay on DU145 cell line. Moreover, the IC50 with PC3 cell line amounted to 22 nM; with A549 cell line it was 16 nM; with HT29 cell line, 28 nM; in the assay on K562 cell line it was 8.5 nM.
